This is an account of results in patent US20220370636A1, “NICOTINAMIDE ADENINE DINUCLEOTIDE ACTIVATOR AND USE THEREOF” (University of South Florida, priority 2021, published 2022).

For assay [1], the system named is db/db mice. Briefly: Luminex Magpix IP-10 immunoassay of serum. In kind it is in vivo. The conditions noted are these: vs db-Veh. The method, then:
Luminex Magpix IP-10 (C—X—C motif chemokine ligand 10) immunoassay. The serum inflammatory markers were analysed using a mouse cytokine/chemokine antibody-immobilized premixed 32-plex Luminex magnetic beads based 96-Well plate immunoassay kit (Milliplex Map kit—MCYTMAG-70K-PX32, EMD Millipore Corporation, MA, USA) according to the manufacturer's instruction. Briefly, the serum samples were diluted at 1:2 in the assay buffer and measured in duplicates along with the standards and quality controls. The serum samples were incubated overnight at 4° C. with the magnetic beads. The wells were then washed with wash buffer and incubated with the detection antibodies for 1 h at RT, followed by a streptavidin-phycoerythrin incubation for 30 min at RT. After washing, the plate was run on MAGPIX with xPONENT software. The mean fluorescent intensity data was analysed using a five-parameter logistic curve-fitting Multi Analyst software for calculating the cytokine/chemokine concentrations of the samples (n=6 mice per group).

In assay [2] the test system is db/db mice. Briefly: Serum HDL and LDL/VLDL in db/db mice. Format: in vivo. The settings on record: vs db-Veh. An excerpt:
Fasting blood glucose and serum lipid.

Another assay concerns NF-κB. Briefly: Luciferase assay in TNF-α inflamed C2C12/NF-κB reporter cells. In kind it is cell-based, mouse. The conditions noted are these: 100 and 500 nM, and 1 μM; 24 hours; 10 ng/mL TNF-α; vs DMSO+TNF-α. The method, then:
Cell culture and Luciferase assay. The C2C12/NF-κB reporter cells were grown in DMEM supplemented with 10% FBS and 1% penicillin/streptomycin. Puromycin selection of the cells was performed by adding 2 μg/mL to the media, and the C2C12 cells with the NF-κB reporter gene were selected for further culturing. Cells were plated at 40,000 cells per well for the initial seeding density using a 24-well format. To induce inflammation, TNF-α was added at a concentration of 10 ng/mL, and simultaneously, the cells were treated with the vehicle control (DMSO or blank NPs), P7C3 solution, and P7C3 NPs. […] After 24 hours, the luciferase assay was conducted per manufacturer protocol (Promega Luciferase Assay System, USA). Using a Synergy H1 Hybrid Multi-Mode Reader, the luminescence of the cell lysate in the opaque 96-well plate was measured. Protein in the cell lysates was measured using a Pierce™ 660 nm protein assay. The luciferase activity was calculated after normalization with protein concentration.

For the compound `OC(CNc1ccccc1)Cn1c2ccc(Br)cc2c2cc(Br)ccc21` (stereo not shown) [P7C3, 3,6-Dibromo-a-[(phenylamino)methyl]-9H-carbazole-9-ethanol], in the assay on db/db mice [1], the “serum IP-10 levels” value is “significant decrease”. For the same compound, in the assay with db/db mice [2], the HDL lipoproteins level entry is reported as “significant increase” and the LDL/VLDL lipoproteins level result is listed as “significant decrease”. Besides, the “NF-κB activity (luciferase)” value in the assay on NF-κB is reported as “significant decrease”.
